The target in test [1] is T1, Beta-2 adrenergic receptor (Homo sapiens, UniProt P07550). As to the kind of experiment: Displacement of [3H]-DHA from recombinant human beta2 adrenoceptor expressed in HEK293T cells. In kind it is cell-based, HEK-293T. On the technique in general: In a radioligand displacement assay an active substance lowers the binding of a labelled ligand.
Test [2] addresses T1, Beta-2 adrenergic receptor. As to the kind of experiment: Agonist activity at recombinant human beta2 adrenoceptor expressed in HEK293T cells assessed as increase in IBMX-induced cAMP accumulation using [3H]-cAMP after 30 mins by liquid scintillation counting. In kind it is functional, cell-based, HEK-293T. For orientation: cAMP levels reflect the balance of adenylyl cyclase and phosphodiesterase activity.

The structures appear in SMILES notation.

Ki and EC50 data for two compounds are collected here from ChEMBL document CHEMBL1933019, “Cell-based and in-silico studies on the high intrinsic activity of two boron-containing salbutamol derivatives at the human β₂-adrenoceptor” (Bioorg Med Chem, 2012).

T1 sequence (P07550 whole entry): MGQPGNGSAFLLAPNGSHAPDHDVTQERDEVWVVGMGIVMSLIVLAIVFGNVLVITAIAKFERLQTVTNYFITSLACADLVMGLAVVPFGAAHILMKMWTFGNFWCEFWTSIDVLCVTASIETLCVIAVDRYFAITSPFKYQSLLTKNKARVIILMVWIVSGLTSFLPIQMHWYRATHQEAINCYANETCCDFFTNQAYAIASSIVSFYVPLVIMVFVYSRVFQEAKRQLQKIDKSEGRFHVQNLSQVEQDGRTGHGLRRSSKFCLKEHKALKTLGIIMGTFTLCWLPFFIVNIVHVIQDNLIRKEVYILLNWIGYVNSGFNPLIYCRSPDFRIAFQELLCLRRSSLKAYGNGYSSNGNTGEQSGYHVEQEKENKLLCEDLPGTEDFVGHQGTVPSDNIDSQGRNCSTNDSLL

As a reminder, the Ki is a measure of affinity in units of concentration, obtained from inhibition or displacement. What is called EC50 is the concentration giving half of the maximal effect. `CC(C)(C)NC[C@H](O)c1ccc2c(c1)C[OH+][B-](O)(O)O2`: the Ki in test [1] was determined as 3890 nM. The half-maximal effective concentration (EC50) in test [2] was determined as 166 nM.

`CC(C)(C)NC[C@H](O)c1ccc2c(c1)C[OH+][B-](O)(c1ccccc1)O2` (some centres undefined): the inhibitory constant (Ki) in test [1] was 6610 nM. The EC50 in test [2] was found to be 138 nM.
